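Cultured in 96-well plates, cells were exposed to test compound for 48 hours across five concentrations. GI50 = concentration required for 50% inhibition of growth.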 Calls of active or inactive are those of the source. Rule as the data show it: active = GI50 up to about 1.1 µM and inactive = higher.
Experiments:
Experiment in all cases: growth of human tumour cells (NCI), 48 h
NCI-H460 = system: NCI-H460
MDA-MB-435 = system: MDA-MB-435
HL-60 = system: HL-60
SF-268 = system: SF-268
NCI/ADR-RES = system: NCI/ADR-RES
SNB-19 = system: SNB-19
ACHN = system: ACHN
SF-539 = system: SF-539
K562 = system: K562
SN12C = system: SN12C
Malme-3M = system: Malme-3M
SF-295 = system: SF-295
DU-145 = system: DU-145
SK-MEL-5 = system: SK-MEL-5
U-251 = system: U-251
UO-31 = system: UO-31
SNB-75 = system: SNB-75
UACC-62 = system: UACC-62
HT-29 = system: HT-29
NCI-H23 = system: NCI-H23

Measured: GI50

Oc1ccc(SCc2cc(O)c(O)c(O)c2)cc1
inactive: NCI-H460 19.1 µM | MDA-MB-435 22.4 µM | HL-60 34.4 µM | SF-268 > 100 µM | NCI/ADR-RES 19.7 µM | SNB-19 59.4 µM | ACHN 47.9 µM | SF-539 82.8 µM | K562 13.2 µM | SN12C 26.4 µM | Malme-3M 61.5 µM | SF-295 15.8 µM | DU-145 56.5 µM | SK-MEL-5 18 µM | U-251 37.1 µM | UO-31 24.8 µM | SNB-75 46.5 µM | UACC-62 16.9 µM | HT-29 23.5 µM | NCI-H23 41.4 µM

COC(NC(=O)Nc1ccc(C)cc1)(C(F)(F)F)C(F)(F)F
inactive: NCI-H460 32 µM | MDA-MB-435 30.9 µM | HL-60 > 100 µM | SF-268 40.4 µM | NCI/ADR-RES 25.9 µM | SNB-19 23.7 µM | ACHN 24 µM | SF-539 41.4 µM | K562 8.39 µM | SN12C 28.1 µM | Malme-3M 36.3 µM | SF-295 26.5 µM | DU-145 35.6 µM | SK-MEL-5 15.6 µM | U-251 18.1 µM | UO-31 17.5 µM | SNB-75 28.1 µM | UACC-62 10.6 µM | HT-29 31 µM | NCI-H23 30.1 µM
